Laboratory results: PubChem BioAssay AID220 (DTP/NCI, 2004)
Values joined by “and” are separate entries in the source; they are usually repeats but may differ in a detail not shown here. Equal entries are not always repeated. Results filed as inconclusive are left out.

Test system: CD8F1 mice, subcutaneous mammary adenocarcinoma, T/C%
Assay: NCI In Vivo Anticancer Drug Screen. Data for tumor model Mammary Adenocarcinoma CD8F1 (subcutaneous) in CD8F1
Settings: higher = larger tumour
Outline: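 Compound-treated versus vehicle-treated mice with transplantable tumors; survival or tumor size compared as T/C.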

[1] = endpoint: median tumor weight (est.), dose: 12.5 mg/kg/injection, schedule: Q07DX005 (ip), vehicle: saline with Tween-80
[2] = endpoint: median tumor weight (est.), dose: 25.0 mg/kg/injection, schedule: Q07DX005 (ip), vehicle: saline with Tween-80
[3] = endpoint: median tumor weight (est.), dose: 100.0 mg/kg/injection, schedule: Q07DX005 (ip), vehicle: saline with Tween-80
[4] = endpoint: median tumor weight (est.), dose: 200.0 mg/kg/injection, schedule: Q07DX005 (ip), vehicle: saline with Tween-80
[5] = endpoint: median tumor weight (est.), dose: 400.0 mg/kg/injection, schedule: Q07DX005 (ip), vehicle: saline with Tween-80
[6] = endpoint: median tumor weight (est.), dose: 12.5 mg/kg/injection, schedule: Q07DX005 (ip), vehicle: water
[7] = endpoint: median tumor weight (est.), dose: 25.0 mg/kg/injection, schedule: Q07DX005 (ip), vehicle: water
[8] = endpoint: median tumor weight (est.), dose: 50.0 mg/kg/injection, schedule: Q07DX005 (ip), vehicle: water
[9] = endpoint: median tumor weight (est.), dose: 100.0 mg/kg/injection, schedule: Q07DX005 (ip), vehicle: water
[10] = endpoint: median tumor weight (est.), dose: 50.0 mg/kg/injection, schedule: Q07DX005 (ip), vehicle: saline with Tween-80

`COC(=O)[C@@]12OC[C@]34[C@H]([C@@H](O)[C@@H]1O)[C@@]1(C)CC(=O)C(O)=C(C)[C@@H]1C[C@H]3OC(=O)[C@H](OC(=O)/C=C(/C)C(C)(C)O)[C@@H]24` was tested, and the T/C (endpoint: median tumor weight (est.), dose: 0.05 mg/kg/injection, schedule: Q07DX005 (ip), vehicle: saline) was 92 % of control, the T/C (endpoint: median tumor weight (est.), dose: 0.1 mg/kg/injection, schedule: Q07DX005 (ip), vehicle: saline) was 88 % of control and the T/C (endpoint: median tumor weight (est.), dose: 0.2 mg/kg/injection, schedule: Q07DX005 (ip), vehicle: saline) was 67 % of control. The T/C (endpoint: median tumor weight (est.), dose: 0.4 mg/kg/injection, schedule: Q07DX005 (ip), vehicle: saline) was 100 % of control and the T/C (endpoint: median tumor weight (est.), dose: 0.8 mg/kg/injection, schedule: Q07DX005 (ip), vehicle: saline) was 90 % of control.

In the case of `C[CH2][Ge]1([CH2]C)[CH2]CC2(CCN(CCCN(C)C)C2)C[CH2]1`, the T/C (endpoint: mean tumor weight, dose: 25.0 mg/kg/injection, schedule: Q04DX009 (ip), vehicle: saline) is reported as 113 % of control, the T/C (endpoint: mean tumor weight, dose: 50.0 mg/kg/injection, schedule: Q04DX009 (ip), vehicle: saline) is reported as 87 % of control and the T/C (endpoint: mean tumor weight, dose: 100.0 mg/kg/injection, schedule: Q04DX009 (ip), vehicle: saline) is reported as 40 % of control. The T/C (endpoint: median tumor weight (est.), dose: 2.0 mg/kg/injection, schedule: Q07DX005 (ip), vehicle: saline) was 67 % of control, the T/C (endpoint: median tumor weight (est.), dose: 4.0 mg/kg/injection, schedule: Q07DX005 (ip), vehicle: saline) was 57 % of control and the T/C (endpoint: median tumor weight (est.), dose: 16.0 mg/kg/injection, schedule: Q07DX005 (ip), vehicle: saline) was 74 % of control. The T/C (endpoint: median tumor weight (est.), dose: 32.0 mg/kg/injection, schedule: Q07DX005 (ip), vehicle: saline) was 55 % of control and 68 % of control and the T/C (endpoint: median tumor weight (est.), dose: 64.0 mg/kg/injection, schedule: Q07DX005 (ip), vehicle: saline) was 67 % of control and 77 % of control.

For `COc1cccc2c1C(=O)c1c(O)c3c(c(O)c1C2=O)C[C@@](O)(/C(CO)=N/NC(=O)c1ccc(Cl)c(Cl)c1)C[C@@H]3OC1CC(N)C(O)C(C)O1` (stereo not given in full), the T/C (endpoint: mean tumor weight, dose: 0.75 mg/kg/injection, schedule: Q07DX005 (ip), vehicle: saline) was 106 % of control, the T/C (endpoint: mean tumor weight, dose: 1.5 mg/kg/injection, schedule: Q07DX005 (ip), vehicle: saline) was 161 % of control and the T/C (endpoint: mean tumor weight, dose: 1.5 mg/kg/injection, schedule: Q07DX006 (ip), vehicle: saline) was 118 % of control. The T/C (endpoint: mean tumor weight, dose: 3.0 mg/kg/injection, schedule: Q07DX005 (ip), vehicle: saline) was 75 % of control, the T/C (endpoint: mean tumor weight, dose: 3.0 mg/kg/injection, schedule: Q07DX006 (ip), vehicle: saline) was 71 % of control and the T/C (endpoint: mean tumor weight, dose: 4.0 mg/kg/injection, schedule: Q07DX004 (ip), vehicle: saline) was 86 % of control. The T/C (endpoint: mean tumor weight, dose: 8.0 mg/kg/injection, schedule: Q07DX004 (ip), vehicle: saline) was 96 % of control, the T/C (endpoint: mean tumor weight, dose: 12.0 mg/kg/injection, schedule: Q07DX005 (ip), vehicle: saline) was 30 % of control and the T/C (endpoint: mean tumor weight, dose: 12.0 mg/kg/injection, schedule: Q07DX006 (ip), vehicle: saline) was 32 % of control. For the same compound, the T/C (endpoint: mean tumor weight, dose: 16.0 mg/kg/injection, schedule: Q07DX004 (ip), vehicle: saline) was 17 % of control, the T/C (endpoint: median tumor weight (est.), dose: 2.0 mg/kg/injection, schedule: Q07DX005 (ip), vehicle: suspension in saline) was 60 % of control and the T/C (endpoint: median tumor weight (est.), dose: 4.0 mg/kg/injection, schedule: Q07DX005 (ip), vehicle: suspension in saline) was 150 % of control. The T/C (endpoint: median tumor weight (est.), dose: 8.0 mg/kg/injection, schedule: Q07DX005 (ip), vehicle: suspension in saline) was 41 % of control and the T/C (endpoint: median tumor weight (est.), dose: 16.0 mg/kg/injection, schedule: Q07DX005 (ip), vehicle: suspension in saline) was 25 % of control.

For `Cc1ccc(S(=O)(=O)NC(=S)S)cc1`, the T/C [1] was 110 % of control, the T/C [2] was 94 % of control and the T/C [3] was 91 % of control. The T/C [4] was 95 % of control and the T/C [5] was 106 % of control.

`O=C(O)C1CC(c2ccccc2)=NN1c1ccccc1` (stereo not given) was tested, and the T/C [6] was 101 % of control, the T/C [7] was 83 % of control and the T/C [8] was 83 % of control. For the same compound, the T/C [9] was 78 % of control and the T/C (endpoint: median tumor weight (est.), dose: 200.0 mg/kg/injection, schedule: Q07DX005 (ip), vehicle: water) was 70 % of control.

In the case of `Nc1ccn([C@@H](C=O)O[C@@H](C=O)CO)c(=O)n1`, the T/C (endpoint: median tumor weight (est.), dose: 25.0 mg/kg/injection, schedule: Q07DX005 (ip), vehicle: suspension in saline) is reported as 122 % of control, the T/C (endpoint: median tumor weight (est.), dose: 50.0 mg/kg/injection, schedule: Q07DX005 (ip), vehicle: suspension in saline) is reported as 188 % of control and the T/C (endpoint: median tumor weight (est.), dose: 100.0 mg/kg/injection, schedule: Q07DX005 (ip), vehicle: suspension in saline) is reported as 151 % of control. For the same compound, the T/C (endpoint: median tumor weight (est.), dose: 200.0 mg/kg/injection, schedule: Q07DX005 (ip), vehicle: suspension in saline) was 105 % of control.

In the case of `Cc1ccccc1SSc1ccccc1C`, the T/C [10] is reported as 159 % of control, the T/C [3] is reported as 123 % of control and the T/C [4] is reported as 179 % of control.

With `CCCCn1cnc2c(=S)nc[nH]c21` the T/C (endpoint: median tumor weight change, dose: 250.0 mg/kg/injection, schedule: Q01DX001 (ip), vehicle: saline with Tween-80) was 60 % of control, the T/C (endpoint: median tumor weight change, dose: 500.0 mg/kg/injection, schedule: Q01DX001 (ip), vehicle: saline with Tween-80) was 2 % of control and the T/C (endpoint: median tumor weight change, dose: 1000.0 mg/kg/injection, schedule: Q01DX001 (ip), vehicle: saline with Tween-80) was 8 % of control.

With `BrCCC1(CCBr)CCCCC1` the T/C (endpoint: median tumor weight change, dose: 125.0 mg/kg/injection, schedule: Q01DX001 (ip), vehicle: other) was 80 % of control, the T/C (endpoint: median tumor weight change, dose: 250.0 mg/kg/injection, schedule: Q01DX001 (ip), vehicle: other) was 79 % of control and the T/C (endpoint: median tumor weight change, dose: 500.0 mg/kg/injection, schedule: Q01DX001 (ip), vehicle: other) was 83 % of control. The T/C (endpoint: median tumor weight change, dose: 1000.0 mg/kg/injection, schedule: Q01DX001 (ip), vehicle: other) was 109 % of control and the T/C (endpoint: median tumor weight change, dose: 2000.0 mg/kg/injection, schedule: Q01DX001 (ip), vehicle: other) was 119 % of control.

For `CC1(O)CC23CC(O)C4(O)C(CC(O)C4(C)C)C(C)(O)C2CCC1C3O` (stereo not given), the T/C (endpoint: median tumor weight change, dose: 0.25 mg/kg/injection, schedule: Q01DX001 (ip), vehicle: Klucel (hydroxypropylcellulose) (HPC)) was 39 % of control and the T/C (endpoint: median tumor weight change, dose: 0.5 mg/kg/injection, schedule: Q01DX001 (ip), vehicle: Klucel (hydroxypropylcellulose) (HPC)) was 73 % of control.

With `COc1cc(O)c2c(O)c3c(c4c2c1[C@]1(C4)C(C)=CCCC1(C)C)[C@H](O)[C@@]1(O)CC(=O)C(C(N)=O)=C(O)[C@@]1(O)C3=O` the T/C (endpoint: median tumor weight (est.), dose: 6.25 mg/kg/injection, schedule: Q07DX005 (ip), vehicle: saline with Tween-80) was 56 % of control, the T/C (endpoint: median tumor weight (est.), dose: 6.25 mg/kg/injection, schedule: Q07DX005 (ip), vehicle: saline) was 47 % of control and the T/C [1] was 92 % of control. For the same compound, the T/C (endpoint: median tumor weight (est.), dose: 12.5 mg/kg/injection, schedule: Q07DX005 (ip), vehicle: saline) was 58 % of control, the T/C [2] was 95 % of control and the T/C (endpoint: median tumor weight (est.), dose: 25.0 mg/kg/injection, schedule: Q07DX005 (ip), vehicle: saline) was 87 % of control. The T/C [10] was 89 % of control, the T/C (endpoint: median tumor weight (est.), dose: 50.0 mg/kg/injection, schedule: Q07DX005 (ip), vehicle: saline) was 81 % of control and the T/C (endpoint: median tumor weight (est.), dose: 100.0 mg/kg/injection, schedule: Q07DX005 (ip), vehicle: saline) was 37 % of control.

For `Oc1cc2c3c(c1)c1cc4c(cc1c[n+]3CC2)OCO4`, the T/C (endpoint: median tumor weight (est.), dose: 6.25 mg/kg/injection, schedule: Q07DX005 (ip), vehicle: water) was 81 % of control, the T/C [6] was 83 % of control and the T/C [7] was 85 % of control. The T/C [8] was 94 % of control and the T/C [9] was 78 % of control.

In the case of `CCO/C=C1\SC(=S)N(c2ccccc2C)C1=O`, the T/C [1] is reported as 106 % of control, the T/C [3] is reported as 115 % of control and the T/C [4] is reported as 95 % of control. The T/C [5] was 67 % of control.

With `CCN(CC)CCCNc1nccc2c(C)c3[nH]c4ccncc4c3cc12` the T/C (endpoint: median tumor weight change, dose: 25.0 mg/kg/injection, schedule: Q01DX001 (ip), vehicle: other) was 29 % of control and 32 % of control.

For `CCC(CC)COC(=O)c1ccccc1C(=O)OCC(CC)CC`, the T/C [2] was 83 % of control, the T/C [4] was 65 % of control and the T/C [5] was 75 % of control. The T/C (endpoint: median tumor weight (est.), dose: 800.0 mg/kg/injection, schedule: Q07DX005 (ip), vehicle: saline with Tween-80) was 64 % of control.

`Nc1cc2c3c(cccc3c1)C(=O)N(CCN1CCCC1)C2=O` was tested, and the T/C (endpoint: median tumor weight change, dose: 15.63 mg/kg/injection, schedule: Q01DX001 (ip), vehicle: saline with Tween-80) was 114 % of control.

With `O=C(Oc1ccccc1)c1cc(O)c(O)c(O)c1` the T/C (endpoint: median tumor weight change, dose: 150.0 mg/kg/injection, schedule: Q01DX001 (ip), vehicle: suspension in saline) was 98 % of control and the T/C (endpoint: median tumor weight change, dose: 300.0 mg/kg/injection, schedule: Q01DX001 (ip), vehicle: suspension in saline) was 111 % of control.
